“And” between values parts separate entries of the source, which are not always exact repeats. Equal entries are not always repeated.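 96-well plates; 48 h exposure; 5 concentrations. Endpoints by linear interpolation between flanking doses. Not reached: highest tested concentration assigned. GI50: concentration for 50% inhibition of growth. TGI: total growth inhibition.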
Tests used:
Test in all cases: NCI tumour cell line growth inhibition, 48 h
BT-549 breast = test system: BT-549 breast
COLO 205 colon = test system: COLO 205 colon
K-562 leukemia = test system: K-562 leukemia
MOLT-4 leukemia = test system: MOLT-4 leukemia
NCI/ADR-RES ovarian = test system: NCI/ADR-RES ovarian
OVCAR-3 ovarian = test system: OVCAR-3 ovarian
OVCAR-8 ovarian = test system: OVCAR-8 ovarian
PC-3 prostate = test system: PC-3 prostate
SF-295 CNS = test system: SF-295 CNS
SK-MEL-5 melanoma = test system: SK-MEL-5 melanoma
SR leukemia = test system: SR leukemia
UACC-62 melanoma = test system: UACC-62 melanoma
EKVX NSCLC = test system: EKVX NSCLC

CC(=O)N1N=C(c2ccc3ccccc3c2O)CC1C(=O)c1ccco1 (stereo not given)
TGI (BT-549 breast): > 100 µM
TGI (COLO 205 colon): 67.6 µM
TGI (K-562 leukemia): 41 µM
TGI (MOLT-4 leukemia): 24.4 µM
TGI (NCI/ADR-RES ovarian): 57.8 µM
TGI (OVCAR-3 ovarian): > 100 µM
TGI (OVCAR-8 ovarian): > 100 µM
TGI (PC-3 prostate): > 100 µM
TGI (SF-295 CNS): > 100 µM
TGI (SK-MEL-5 melanoma): > 100 µM
TGI (SR leukemia): 18.6 µM
TGI (UACC-62 melanoma): 62.6 µM

O=C1CCCCC(=O)OC2(CCCCC2=O)CC1 (stereo not given)
TGI (BT-549 breast): > 100 µM
TGI (COLO 205 colon): > 100 µM
TGI (K-562 leukemia): > 100 µM
TGI (MOLT-4 leukemia): > 100 µM
TGI (NCI/ADR-RES ovarian): > 100 µM
TGI (OVCAR-3 ovarian): > 100 µM
TGI (OVCAR-8 ovarian): > 100 µM
TGI (PC-3 prostate): > 100 µM
TGI (SF-295 CNS): > 100 µM
TGI (SK-MEL-5 melanoma): > 100 µM
TGI (SR leukemia): > 100 µM
TGI (UACC-62 melanoma): > 100 µM

CC1(CF)SCc2nc3ccccc3n21 (stereo not given)
TGI (BT-549 breast): > 100 µM
TGI (COLO 205 colon): > 100 µM
TGI (EKVX NSCLC): > 100 µM
TGI (NCI/ADR-RES ovarian): > 100 µM
TGI (OVCAR-3 ovarian): > 100 µM
TGI (OVCAR-8 ovarian): > 100 µM
TGI (PC-3 prostate): > 100 µM
TGI (SF-295 CNS): > 100 µM
TGI (SK-MEL-5 melanoma): > 100 µM
TGI (SR leukemia): > 100 µM
TGI (UACC-62 melanoma): > 100 µM

COc1cc(CNc2ccc(SC)cc2)cc(OC)c1OC
GI50 (BT-549 breast): 9.13 µM
TGI (BT-549 breast): > 100 µM
TGI (COLO 205 colon): 12.8 µM and 12.4 µM
TGI (EKVX NSCLC): > 100 µM
GI50 (K-562 leukemia): 3.99 µM and 1.49 µM
TGI (K-562 leukemia): 44.9 µM and > 63.6 µM
TGI (MOLT-4 leukemia): > 100 µM
TGI (NCI/ADR-RES ovarian): 23.9 µM and > 22.6 µM
TGI (OVCAR-3 ovarian): 54.1 µM and 19.6 µM
GI50 (OVCAR-8 ovarian): 27.1 µM and 7.69 µM
TGI (OVCAR-8 ovarian): > 92.6 µM and 56 µM
TGI (PC-3 prostate): > 100 µM and 47.7 µM
GI50 (SF-295 CNS): 8.24 µM and 3.57 µM
TGI (SF-295 CNS): 53.8 µM and 22.1 µM
GI50 (SK-MEL-5 melanoma): 11.6 µM and 4.51 µM
TGI (SK-MEL-5 melanoma): 59.6 µM and 16 µM
GI50 (SR leukemia): 4.17 µM and 1.63 µM
TGI (SR leukemia): > 100 µM
GI50 (UACC-62 melanoma): 10.7 µM and 4.64 µM
TGI (UACC-62 melanoma): > 80.7 µM and 51.1 µM

CCOC(=O)c1ccc(N2C(=S)N(C(=O)c3ccccc3)C(=Nc3ccccc3)C2=Nc2ccccc2)cc1
TGI (BT-549 breast): > 100 µM
TGI (EKVX NSCLC): > 100 µM
TGI (K-562 leukemia): > 100 µM
TGI (NCI/ADR-RES ovarian): > 100 µM
TGI (OVCAR-3 ovarian): > 100 µM
TGI (OVCAR-8 ovarian): > 100 µM
TGI (PC-3 prostate): > 100 µM
TGI (SF-295 CNS): > 100 µM
TGI (SK-MEL-5 melanoma): > 100 µM
TGI (SR leukemia): > 100 µM
TGI (UACC-62 melanoma): > 100 µM

Cc1ccc2nc(Cl)c(/C=N/N3C(=O)/C(=C/c4ccccc4S)N=C3c3ccccc3)cc2c1
TGI (BT-549 breast): > 100 µM
TGI (COLO 205 colon): > 100 µM
TGI (EKVX NSCLC): > 100 µM
TGI (K-562 leukemia): 49 µM
TGI (MOLT-4 leukemia): 15.1 µM
TGI (NCI/ADR-RES ovarian): 76.5 µM
TGI (OVCAR-3 ovarian): 28.2 µM
TGI (OVCAR-8 ovarian): > 100 µM
TGI (PC-3 prostate): > 100 µM
TGI (SF-295 CNS): 84 µM
TGI (SK-MEL-5 melanoma): > 100 µM
TGI (SR leukemia): 60.8 µM
TGI (UACC-62 melanoma): > 100 µM

Cc1cc(C2(O)C=C(C(C)(C)C)C(=O)C(C(C)(C)C)=C2)c(C)cc1C1(O)C=C(C(C)(C)C)C(=O)C(C(C)(C)C)=C1
TGI (BT-549 breast): > 100 µM
TGI (COLO 205 colon): > 100 µM
TGI (EKVX NSCLC): > 100 µM
TGI (K-562 leukemia): > 100 µM
TGI (MOLT-4 leukemia): > 100 µM
TGI (NCI/ADR-RES ovarian): > 100 µM
TGI (OVCAR-8 ovarian): > 100 µM
TGI (PC-3 prostate): > 100 µM
TGI (SF-295 CNS): > 100 µM
TGI (SK-MEL-5 melanoma): > 100 µM
TGI (SR leukemia): > 100 µM
TGI (UACC-62 melanoma): > 100 µM

O=C(NCCCCCCNCc1cccc2ccccc12)Nc1cccc2ccccc12
TGI (BT-549 breast): > 100 µM
TGI (COLO 205 colon): > 100 µM
TGI (EKVX NSCLC): > 100 µM
TGI (K-562 leukemia): > 100 µM
TGI (MOLT-4 leukemia): > 100 µM
TGI (NCI/ADR-RES ovarian): > 100 µM
TGI (OVCAR-3 ovarian): > 100 µM
TGI (OVCAR-8 ovarian): > 100 µM
TGI (PC-3 prostate): > 100 µM
TGI (SF-295 CNS): > 100 µM
TGI (SK-MEL-5 melanoma): > 100 µM
TGI (UACC-62 melanoma): > 100 µM

CN(C)Cc1cc(C(=O)/C=C/c2ccccc2Cl)cc(CN(C)C)c1O
TGI (BT-549 breast): 20 µM
TGI (COLO 205 colon): 18.5 µM
TGI (EKVX NSCLC): 30.6 µM
TGI (K-562 leukemia): 24.3 µM
TGI (MOLT-4 leukemia): 59.8 µM
TGI (NCI/ADR-RES ovarian): 63.6 µM
TGI (OVCAR-3 ovarian): 30.5 µM
TGI (OVCAR-8 ovarian): 31.9 µM
TGI (PC-3 prostate): 29.2 µM
TGI (SF-295 CNS): 28.3 µM
TGI (SK-MEL-5 melanoma): 26.1 µM
TGI (SR leukemia): 35.5 µM

Source: PubChem BioAssay (NCI)
